Results reported in patent US20030047295A1, “Bio-bleaching of pulp using laccase, mediator, and chain transfer agent” (priority 2001, published 2003).

Assay: Pulp bleaching, delignification measured as Kappa number (TAPPI T236 cm-85)
Conditions: for Kappa No.: 2 g pulp, starting Kappa 31
Method: Delignification of the pulp was measured as the change in Kappa number according to the TAPPI method T236 cm-85. A typical procedure is as follows. A known mass of paper pulp (containing lignin) is reacted with an excess of potassium permanganate in an acid solution for a specified period of time to oxidize the lignin. After the reaction, the residual permanganate is determined by titration. The Kappa number is defined as the volume (ml) of 0.1N potassium permanganate consumed by 1 g of moisture-free pulp in 0.5N sulfuric acid after a ten-minute reaction time at 25° C. under conditions such that one-half of the permanganate remains unreacted. A linear relationship with the lignin content of the pulp and the measurement of the Kappa number has already been done on samples as low as 300 mg of pulp.
A softwood Kraft pulp, Kappa number 31.0, was treated with a laccase (NS51003) under the following conditions:
The dried pulp was added to 80 ml of 50 mM phosphate, pH 5.5, and disintegrated in a blender. The pulp was then transferred to a 500 ml conical flask and the blender was washed with 20 ml of the same buffer. The washed buffer and the pulp were combined. The mediator was added at 1-4% (w/w, based on the dry pulp), followed by the addition of the laccase. The pH of the pulp mixture was adjusted to 5.5 if needed. The flask was covered with an aluminum foil with holes punched through and incubated at 50° C. for 16 hrs on a rotary shaker at 200 rpm.
After the enzymatic treatment, the pulp mixture was filtered through a Buchner funnel, and the pulp was washed with water. The pulp from the control experiment was treated at the same pH and temperature as described above.
The washed pulp was then treated with an alkaline solution under the following conditions:
The filtered pulp was repulped in the alkaline solution and incubated at 70° C. for 3 hrs. The pH of the pulp mixture should be between 11.7-12.00 during the entire treatment. After the treatment, the pulp mixture was filtered through a Buchner funnel, and the pulp was washed with water extensively and then dried in a hood overnight.
The delignification of the pulp was measured as a change in Kappa Number according to TAPPI method T236 cm-85.
In this example, we used the typical pulp bleaching experiment as described above. We also used laccase as the enzyme, hardwood black liquor (HWBL) as the mediator, and two chain transfer agents (anthracene and CBr4).

[1] = laccase 100 ul plus HWBL 200 ul as mediator plus chain transfer agent 20 mg

Compound | Kappa number reduction (in words) (0.1 ml of the 51003 laccase with the mediator) | Kappa No. (laccase 100 ul plus mediator (HBT 20 mg or HWBL 200 ul), no chain transfer agent) | Kappa No. [1]
On1nnc2ccccc21 [HBT, 1-hydroxybenzotriazole] | modest Kappa number reduction | 26.1 | –
BrC(Br)(Br)Br [CBr4, carbon tetrabromide] | – | – | 24.4
c1ccc2cc3ccccc3cc2c1 [anthracene] | – | – | 25.4
